Converted amounts (≈) assume the structure as drawn.
Settings: for solubility: 21 °C

| Compound | logP | solubility [µM] |
| --- | --- | --- |
| CSCOC(=O)c1ccccc1OC(C)=O | 1.94 | 2290 (≈ 550 µg/mL) |
| CCOC(=O)CN(C)C(=O)COC(=O)c1ccccc1OC(C)=O | 1.67 | – |
| CC(=O)Oc1ccccc1C(=O)OCC(=O)N(C)C | 0.38 | – |
| CC(=O)Oc1ccccc1C(=O)OCC(=O)N(C)CC(N)=O | -0.46 | – |
| CCOC(=O)COC(=O)c1ccccc1OC(C)=O | 1.67 | – |
| CC(=O)OCOC(=O)c1ccccc1OC(C)=O | 1.42 | – |
| CC(=O)Oc1ccccc1C(=O)OCC(=O)N(C(C)C)C(C)C | 2.03 | – |
| CC(=O)Nc1ccc(OC(=O)c2ccccc2OC(C)=O)cc1 | 2.15 | 63.8 (≈ 20 µg/mL) |
| CC(=O)Oc1ccccc1C(=O)Oc1ccccc1 | 2.88 | 78 (≈ 20 µg/mL) |
| CC(=O)Oc1ccccc1C(=O)OCC(=O)NCC(N)=O | -0.43 | – |
| CCNC(=O)COC(=O)c1ccccc1OC(C)=O | 0.9 | – |
| CC(=O)Oc1ccccc1C(=O)OCS(C)=O (stereo not given) | 0.11 | – |
